Results taken from patent publication EP2808337A1, “(E)-3-Aryl-3-oxoprop-1-enyl-2-phosphonic acid and its derivatives, methods for their preparation and their use” (Centrum Badan Molekularnych I Makromolekularnych Pan, priority 2013, dated 2014).

Columns and labels:
[1] = test system: synthetic DNA duplex (23 nt- 5'TCTTCAAGAATTCAGGTCCTGAT 3'); experiment: Circular dichroism (CD) spectra of synthetic DNA duplex with test compounds; assay type: binding; details: immediately after addition; DNA duplex 2µM, compound 20µM, DMSO 0.2%, PBS, 23°C, 200-320 nm; Figure 1
Experimental: The ability of the test compounds 1a and 1b to interact with DNA was tested by the circular dichroism (CD) technique.
1. For this purpose, samples were prepared in PBS buffer containing: […] of synthetic DNA duplex (23 nt- 5'TCTTCAAGAATTCAGGTCCTGAT 3') or DNA of bovine thymus (0.2 mg/ml) and test compounds at a concentration of 20µM or 40µM for synthetic DNA duplex sample and thymus DNA sample, respectively. The samples contained 0.2% or 0.4% DMSO (for synthetic DNA duplex sample and thymus DNA sample, respectively), which is a solvent of the test compounds.
2. CD spectra (in the range from 200 nm to 320 nm) were recorded immediately after addition of the test compounds as well as after 1.5 h incubation. The measurement was carried out at 23°C in a quartz cuvette (optical path length 0.5 cm) using a spectroscope CD6 (Jobin-Yvon, France).
3. CD spectra of DNA incubated with the test compounds were compared with the control spectrum (spectrum was recorded for a sample of DNA (2µM or 0.2 mg/ml) in the presence of DMSO (final concentration of 0.2% or 0.4%).

[2] = test system: DNA plasmid pcDNA 3.1 HisC (8.2 kb); experiment: Digestion of plasmid DNA with restriction enzyme Bam H1 after incubation with compounds (agarose gel electrophoresis); assay type: biochemical; details: compound 2 or 20 µM, overnight at 37°C with 0.6 µg plasmid, then BamH1 2U/sample for 3 hours at 37°C; gel not shown
Experimental: The impact of compounds 1a and 1b has been tested on the digestion of DNA plasmid pcDNA 3.1 HisC (8.2 kb) with restriction enzyme Bam H1.
1. For this purpose, pcDNA 3.1 HisC plasmid DNA (0.6 µg) was dissolved in 1×BamH1 buffer and incubated overnight at 37°C with the following reference or test compounds:
The concentration of the reference and test compounds in each sample was 2 or 20 µM.
2. After overnight incubation, the reaction mixture was digested with BamH1 restriction enzyme (2U/sample) for 3 hours at 37°C. The total volume of the samples was 10 µL.
3. The reaction products were applied on 1% agarose gel and electrophoresis was performed in TAE buffer.

SMILES: COc1cccc2c1C(=O)c1c(O)c3c(c(O)c1C2=O)C[C@@](O)(C(C)=O)C[C@@H]3O[C@H]1C[C@H](N)[C@H](O)[C@H](C)O1 [Daunorubicin, reference compound]
- changes of CD spectrum of duplex DNA compared to control (duplex DNA + DMSO) [1]: changing significantly its structure
- interaction with plasmid DNA: resistance to digestion by the endonucleolytic enzyme Bam H1 [2]: increasing its resistance to digestion

SMILES: COP(=O)(OC)/C(=C/c1ccc2ccc3cccc4ccc1c2c34)C(=O)c1ccc2c(c1)OCO2 [compound 1a]
- changes of CD spectrum of duplex DNA compared to control (duplex DNA + DMSO) [1]: changes compared to the control sample
- interaction with plasmid DNA: resistance to digestion by the endonucleolytic enzyme Bam H1 [2]: increasing its resistance to digestion

SMILES: O=C(/C(=C/c1ccc2ccc3cccc4ccc1c2c34)P(=O)(O)O)c1ccc2c(c1)OCO2 [compound 1b, (Z)-3-(benzo[d][1,3]dioxol-5-yl)-1-(pyrene-1-yl)-3-oxoprop-1-en-2-ylphosphonic acid]
- changes of CD spectrum of duplex DNA compared to control (duplex DNA + DMSO) [1]: changes compared to the control sample
- interaction with plasmid DNA: resistance to digestion by the endonucleolytic enzyme Bam H1 [2]: increasing its resistance to digestion
